Measured values as given in publication PMC6702965, “Inhibition of Porcine Viruses by Different Cell-Targeted Antiviral Drugs” (Frontiers in Microbiology, 2019).
Like-named read-outs stand apart in the source and are kept apart here.

What was measured:
ASFV Ba71V [1] = assay: microbe, parasite or virus in culture; format: cell-based, African swine fever virus; settings: for IC50: African swine fever virus
ASFV isolate E70 = assay: microbe, parasite or virus in culture; format: cell-based; settings: African swine fever virus, COS, read-out: IC50 on virus yield
ASFV = test system: ASFV; parameters: species or system African swine fever virus
FMDV [2] = test system: FMDV; parameters: species or system foot and mouth disease virus
ASFV Ba71V [3] = format: cell-based, African swine fever virus
ASFV Ba71V [4] = format: cell-based, African swine fever virus; remark: listed apart in the source
VSV = settings: cited from earlier work
FMDV [5] = settings: cited from earlier work
SVDV = settings: ref Vazquez-Calvo et al., 2011; cited from earlier work
MTT cell viability assay [6] = settings: African green monkey, Vero cells
FMDV C-S8 [7] = assay: microbe, parasite or virus in culture; format: cell-based, foot and mouth disease virus
MTT cell viability assay [8] = settings: African green monkey, COS cells
MTT cell viability assay [9] = settings: hamster, BHK cells
MTT cell viability assay [10] = settings: pig, IBRS-2 cells
FMDV O-UK = assay: microbe, parasite or virus in culture; format: cell-based, foot and mouth disease virus
VSV Indiana = assay: microbe, parasite or virus in culture; format: cell-based, vesicular stomatitis virus
SVDV SP93 = assay: microbe, parasite or virus in culture; format: cell-based, swine vesicular disease virus
FMDV C-S8 [11] = format: cell-based, foot and mouth disease virus
FMDV C-S8 [12] = format: cell-based, foot and mouth disease virus; remark: listed apart in the source
FMDV C-S8 [13] = format: cell-based, foot and mouth disease virus; remark: listed apart in the source
FMDV C-S8 [14] = test system: FMDV C-S8; parameters: species or system C57 mice; settings: mouse, in vivo
[15] = C57, mouse, in vivo
FMDV C-S8 [16] = settings: mouse, in vivo
ASFV Ba71V [17] = settings: cited from earlier work
[18] = read-out: IC50 on ASFV production

Structure (SMILES): CCCC(CCC)C(=O)O [VPA, valproic acid]
- IC50 (ASFV Ba71V [1]; [18]): 2500 to 3000 µM
- IC50 (ASFV isolate E70): 2500 µM
- Direct virucidal effect (virotoxicity) (ASFV): no direct toxicity
- Direct virucidal effect (virotoxicity) (FMDV [2]): no direct toxicity
- Expression of early virus protein p32 (ASFV Ba71V [3]): very low expression
- Expression of late ASFV proteins (p17, p12) (ASFV Ba71V [3]): No late ASFV proteins
- Effect of time of addition on virus yield (ASFV Ba71V [4]): gradual recovery of virus yields
- Susceptibility of infection to the drug (VSV): susceptible
- Susceptibility of infection to the drug (FMDV [5]): not affected
- Susceptibility of infection to the drug (SVDV): not affected
- CC50 at 24 h (MTT cell viability assay [6]): 50000 µM

Structure (SMILES): CCCOC(=O)c1cc(O)c(O)c(O)c1 [PG, propyl gallate]
- Inhibition of FMDV growth (FMDV C-S8 [7]): Neither G nor PG inhibited FMDV growth

Structure (SMILES): CCCCCCCCOC(=O)c1cc(O)c(O)c(O)c1 [OG, octyl gallate]
- Effect on ASFV infection (ASFV Ba71V [1]): inhibitory effect
- Reduction of virus yields (FMDV C-S8 [7]): 2 log.u.

Structure (SMILES): O=C(O)c1cc(O)c(O)c(O)c1 [G, gallic acid]
- Inhibition of FMDV growth (FMDV C-S8 [7]): Neither G nor PG inhibited FMDV growth

Structure (SMILES): C/C=C/C/C=C/CCC(=O)[C@H]1O[C@H]1C(N)=O [CRL, cerulenin]
- IC50 (ASFV Ba71V [1]; [18]): 9 µM
- IC50 (ASFV isolate E70): 3 µM
- Direct virucidal effect (virotoxicity) (ASFV): no direct toxicity
- Direct virucidal effect (virotoxicity) (FMDV [2]): no direct toxicity
- Expression of early virus protein p32 (ASFV Ba71V [3]): very low expression
- Expression of late ASFV proteins (p17, p12) (ASFV Ba71V [3]): No late ASFV proteins
- Effect of time of addition on virus yield (ASFV Ba71V [4]): recovery of virus productivity was observed when CRL was added as early as 0 h after infection
- CC50 at 24 h (MTT cell viability assay [6]): 45 µM
- CC50 at 24 h (MTT cell viability assay [8]): 60 µM
- CC50 at 24 h (MTT cell viability assay [9]): 60 µM
- CC50 at 24 h (MTT cell viability assay [10]): 40 µM

Structure (SMILES): CCCCCCCCCCCCOC(=O)c1cc(O)c(O)c(O)c1 [LG, lauryl gallate]
- Virus yield reduction (ASFV Ba71V [1]): about 3 log.u.
- IC50 (ASFV Ba71V [1]; COS, 24 h, read-out: IC50 on virus yield): 0.4 µM
- IC50 (ASFV Ba71V [1]; Vero, 24 h, read-out: IC50 on virus yield): 1 µM
- IC50 (ASFV isolate E70): 2 µM
- Decrease in virus production (FMDV C-S8 [7]): at least 1 log.u.
- Reduction of virus yield (FMDV C-S8 [7]): up to 2 log.u
- IC50 (FMDV C-S8 [7]; Foot-and-mouth disease virus, BHK-21, read-out: IC50 on virus yield): 0.2 to 2.5 µM
- Decrease in virus production (FMDV O-UK): at least 1 log.u.
- IC50 (FMDV O-UK; Foot-and-mouth disease virus, read-out: IC50 on virus yield): 0.7 µM
- Reduction of virus productivity (VSV Indiana): 2 log.u.
- IC50 (VSV Indiana; Vesicular stomatitis virus, BHK-21, read-out: IC50 on virus yield): 0.9 µM
- Reduction of virus productivity (SVDV SP93): 1 log.u.
- IC50 (SVDV SP93; Enterovirus B, read-out: IC50 on virus yield): 1.7 µM
- Direct virucidal effect (virotoxicity) (ASFV): no direct toxicity
- Direct virucidal effect (virotoxicity) (FMDV [2]): no direct toxicity
- Expression of structural (VP1) and non-structural (3C) FMDV proteins (FMDV C-S8 [11]): significantly reduced
- Amount of intracellular FMDV RNA (FMDV C-S8 [12]): not affected
- Extracellular virus (RNA) (FMDV C-S8 [12]): significantly reduced
- Positive strand viral RNA synthesis (FMDV C-S8 [12]): transiently inhibited
- Time of LG addition up to which virus productivity was blocked (FMDV C-S8 [13]): up to 7 h.p.i.
- Viral RNA copies (VRC) in blood, spleen, lung, heart and thymus (FMDV C-S8 [14]): significant reduction
- Non-toxic working concentrations [15]: up to 200 mg/kg
- Body weight (FMDV C-S8 [16]): lower weights
- Protection against FMDV challenge (FMDV C-S8 [16]): no protection
- Survival rate (FMDV C-S8 [16]): 70%
- Time of LG addition up to which virus production was inhibited (ASFV Ba71V [17]): up to 5 h.p.i.
- CC50 at 24 h (MTT cell viability assay [6]): 45 µM
- CC50 at 24 h (MTT cell viability assay [8]): 33 µM
- CC50 at 24 h (MTT cell viability assay [9]): 75 µM
- CC50 at 24 h (MTT cell viability assay [10]): 30 µM
